Where two headings read alike, the source gives them in different places.

The target of one experiment is T1, SARS-CoV-2-RBD (S-RBD) (Severe acute respiratory syndrome coronavirus 2, UniProt P0DTC2).
T1 construct: purchased Sino Biological
In words: Surface plasmon resonance (SPR) binding to immobilized S-RBD.

Another experiment deals with T2, hACE2 (Homo sapiens, UniProt Q9BYF1).
T2 construct: purchased Sino Biological
As to the kind of experiment: Surface plasmon resonance (SPR) binding to immobilized hACE2. Here is the method: The recombinant S-RBD (Sino Biological, Beijing, China) and hACE2 protein (Sino Biological, Beijing, China) were used for surface plasmon resonance (SPR) analysis using a Biacore 8K instrument (Biacore, Uppsala, Sweden) as previously described ([Chu et al., 2018a]; [Chu et al., 2018b]). Each target was immobilized onto flow cells in a CM5 sensor chip (GE Healthcare) via the amine-coupling method. Briefly, S-RBD was diluted in 10 mM pH 5.5 acetate to 20 µg/ml, while hACE2 was diluted in 10 mM pH 4.5 acetate to 20 µg/ml. Then the protein solutions were injected individually on the carboxyl modified sensor surface to form amine bonds. Both S-RBD and hACE2 immobilized levels were about 10,000 RU. Binding analyses were carried out at 25 °C and a flow rate of 30 μl min^−1. The retrieved drugs in a running buffer (1×PBS, 0.05% Tween 20 and 5% dimethyl sulfoxide, pH 7.4) were run over each target at gradient concentrations as indicated. An empty flow cell, without any immobilized protein, was used as a deducted reference. The binding curves were analyzed using a kinetic binding model supplied with Biacore Evaluation Software (GE Healthcare).
To evaluate the retrieved inhibitors against the S-RBD-hACE2, surface plasmon resonance (SPR) was used to determine the binding affinities of the 20 retrieved drugs to S-RBD and hACE2.
SPR analysis was performed to assess the retrieved drugs binding to hACE2 at gradient concentrations. The binding curves were analyzed using a kinetic analysis supplied with Biacore Evaluation Software. Data are presented as RU over time (s). The K D were calculated using a 1:1 binding model.

Experiment [1] has as its target S-RBD binding to hACE2 (Severe acute respiratory syndrome coronavirus 2, UniProt P0DTC2). As to the kind of experiment: Competitive inhibition ELISA (SARS-CoV-2 inhibitor screening kit). The conditions noted are these: 1 μM. Format: biochemical.
For experiment [2], the target named is T3, S-RBD binding to hACE2 (Homo sapiens, UniProt Q9BYF1).
T3 construct: purchased Sino Biological
In words: SPR competition binding experiment (S-RBD on immobilized hACE2). The conditions noted are these: competitive SPR, 40 nM S-RBD, 25 μM to 0.012 μM.

Setting [3] is: SPR, 25 °C, 1:1 binding model, read-out: S-RBD K D.
The mark [4] stands for this setting: SPR, 25 °C, 1:1 binding model, read-out: ACE2 K D.

T2 sequence (Q9BYF1 18-805): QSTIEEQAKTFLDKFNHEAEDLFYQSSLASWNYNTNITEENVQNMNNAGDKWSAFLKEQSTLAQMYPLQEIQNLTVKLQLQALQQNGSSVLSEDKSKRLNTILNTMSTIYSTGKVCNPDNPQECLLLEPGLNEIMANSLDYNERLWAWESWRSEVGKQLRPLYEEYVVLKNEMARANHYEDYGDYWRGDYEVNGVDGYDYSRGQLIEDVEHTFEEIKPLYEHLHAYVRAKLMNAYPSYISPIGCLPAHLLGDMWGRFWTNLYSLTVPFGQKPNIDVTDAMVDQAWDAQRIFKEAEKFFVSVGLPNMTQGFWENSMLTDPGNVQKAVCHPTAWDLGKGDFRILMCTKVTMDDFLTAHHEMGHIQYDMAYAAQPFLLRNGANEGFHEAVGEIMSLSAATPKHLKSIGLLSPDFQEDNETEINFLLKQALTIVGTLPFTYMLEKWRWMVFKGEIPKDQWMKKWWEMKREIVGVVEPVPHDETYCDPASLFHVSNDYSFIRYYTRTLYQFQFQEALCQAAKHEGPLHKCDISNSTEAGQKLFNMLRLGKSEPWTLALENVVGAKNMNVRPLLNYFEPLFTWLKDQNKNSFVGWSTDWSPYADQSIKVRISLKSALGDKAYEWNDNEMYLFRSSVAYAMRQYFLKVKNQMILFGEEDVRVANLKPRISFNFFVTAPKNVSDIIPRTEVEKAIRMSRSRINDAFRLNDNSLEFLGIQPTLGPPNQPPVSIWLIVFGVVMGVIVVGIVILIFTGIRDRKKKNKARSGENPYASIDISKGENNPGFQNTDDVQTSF
T3 sequence (Q9BYF1 18-740): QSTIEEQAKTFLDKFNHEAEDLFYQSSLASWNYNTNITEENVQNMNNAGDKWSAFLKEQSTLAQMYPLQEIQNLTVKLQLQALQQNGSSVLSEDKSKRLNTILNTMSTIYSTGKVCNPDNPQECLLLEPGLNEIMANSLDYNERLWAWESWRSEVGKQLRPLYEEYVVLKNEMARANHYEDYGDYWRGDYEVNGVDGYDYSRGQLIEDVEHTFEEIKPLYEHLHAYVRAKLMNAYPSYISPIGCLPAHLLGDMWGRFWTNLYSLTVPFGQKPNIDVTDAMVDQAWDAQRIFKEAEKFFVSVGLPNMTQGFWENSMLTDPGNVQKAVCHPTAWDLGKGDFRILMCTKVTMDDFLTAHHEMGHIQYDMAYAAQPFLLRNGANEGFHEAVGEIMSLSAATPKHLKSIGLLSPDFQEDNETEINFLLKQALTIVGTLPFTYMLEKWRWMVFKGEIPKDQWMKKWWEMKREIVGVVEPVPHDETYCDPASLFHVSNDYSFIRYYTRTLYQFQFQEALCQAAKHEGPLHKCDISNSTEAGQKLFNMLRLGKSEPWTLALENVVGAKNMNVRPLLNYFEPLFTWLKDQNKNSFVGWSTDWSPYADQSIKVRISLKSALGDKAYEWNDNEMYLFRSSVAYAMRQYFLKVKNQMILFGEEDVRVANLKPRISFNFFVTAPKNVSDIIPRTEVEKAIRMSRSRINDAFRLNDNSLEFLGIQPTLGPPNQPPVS

In turn, `Nc1c(Br)cc(Br)cc1CN[C@H]1CC[C@H](O)CC1` [Ambroxol] yielded a Kd on SARS-CoV-2-RBD (S-RBD) of 21.2 µM.

Take `C[C@@H]1[C@H](O)[C@@H](C)/C=C/C=C/C=C/C=C/C=C/C=C/C=C/[C@H](O[C@@H]2O[C@H](C)[C@@H](O)[C@H](N)[C@@H]2O)C[C@@H]2O[C@](O)(C[C@@H](O)C[C@@H](O)[C@H](O)CC[C@@H](O)C[C@@H](O)CC(=O)O[C@H]1C)C[C@H](O)[C@H]2C(=O)O` [Amphotericin B]: the results for the Kd on hACE2 and on SARS-CoV-2-RBD (S-RBD) were 9.49 µM and 1.01 µM, respectively.

In the case of `Cc1ccc([C@@H]2O[C@H](CO)[C@@H](O)[C@H](O)[C@H]2O)cc1Cc1ccc(-c2ccc(F)cc2)s1` [Canagliflozin], the Kd at SARS-CoV-2-RBD (S-RBD) (setting [3]) was found to be 23.1 µM.

For `Cc1cc(OCCCS(C)(=O)=O)cc(C)c1-c1cccc(COc2ccc3c(c2)OC[C@H]3CC(=O)O)c1` [Fasiglifam], the Kd at hACE2 turned out to be 10.5 µM; on SARS-CoV-2-RBD (S-RBD) it was 42.2 µM.

On to `COC(=O)C1=CO[C@@H](O[C@@H]2O[C@H](CO)[C@@H](O)[C@H](O)[C@H]2O)[C@@H]2C(CO)=CC[C@H]12` [Geniposide], for which the Kd on SARS-CoV-2-RBD (S-RBD) was determined as 54.9 µM.

In the case of `CC(C)=CCC[C@](C)(O[C@@H]1O[C@H](CO[C@@H]2O[C@@H](CO)[C@H](O)[C@H]2O)[C@@H](O)[C@H](O)[C@H]1O)[C@H]1CC[C@]2(C)[C@@H]1[C@H](O)C[C@@H]1[C@@]3(C)CC[C@H](O[C@@H]4O[C@H](CO)[C@@H](O)[C@H](O)[C@H]4O[C@@H]4O[C@H](CO)[C@@H](O)[C@H](O)[C@H]4O)C(C)(C)[C@@H]3CC[C@]12C` [Ginsenoside Rc], the Kd on SARS-CoV-2-RBD (S-RBD) came out at 79.8 µM.

In the case of `CC[C@H](C)C(=O)O[C@H]1CCC=C2C=C[C@H](C)[C@H](CC[C@@H]3C[C@@H](O)CC(=O)O3)[C@H]21` [Mevastatin], the Kd on SARS-CoV-2-RBD (S-RBD) is 273 µM.

Consider `C[C@@H]1[C@H](O)[C@@H](C)/C=C/C=C/CC/C=C/C=C/C=C/C=C/C(O[C@H]2O[C@H](C)[C@@H](O)[C@H](N)[C@@H]2O)CC2O[C@](O)(CC(O)C(O)CCC(O)CC(O)CC(O)CC(=O)O[C@H]1C)CC(O)C2C(=O)O` (some centres unmarked) [Nystatin], for which the Kd on SARS-CoV-2-RBD (S-RBD) (setting [3]) stood at 215 µM.

`COC(=O)C1=CC[C@@]23CC[C@@H]([C@@](C)(/C=C/C=C(\C)C(=O)O)OC2=O)[C@@]3(OC(C)=O)CC1` [Pseudolaric acid B] had a Kd on hACE2 of 53.8 µM.

Take `CCC(C)(C)C(=O)O[C@H]1C[C@@H](C)C=C2C=C[C@H](C)[C@H](CC[C@@H]3C[C@@H](O)CC(=O)O3)[C@H]21` [Simvastatin]: at hACE2, the Kd turned out to be 35.8 µM.

Consider `O=S(=O)(O)Oc1ccc(C(c2ccc(OS(=O)(=O)O)cc2)c2ccccn2)cc1` [Sodium Picosulfate], for which the Kd on hACE2 was 45.4 µM; at SARS-CoV-2-RBD (S-RBD), 16 µM.

In the case of `O=C(OCC1OC(OC(=O)c2cc(O)c(O)c(OC(=O)c3cc(O)c(O)c(O)c3)c2)C(OC(=O)c2cc(O)c(O)c(OC(=O)c3cc(O)c(O)c(O)c3)c2)C(OC(=O)c2cc(O)c(O)c(OC(=O)c3cc(O)c(O)c(O)c3)c2)C1OC(=O)c1cc(O)c(O)c(OC(=O)c2cc(O)c(O)c(O)c2)c1)c1cc(O)c(O)c(OC(=O)c2cc(O)c(O)c(O)c2)c1` (centres unmarked) [Tannic acid], the “prevention of S-RBD binding to hACE2” value on S-RBD binding to hACE2 [1] is reported as “prevented S-RBD from binding to hACE2”. For the same compound, the Kd at hACE2 (read-out: ACE2 K D, SPR, 25 °C, 1:1 binding model) was 8.55 µM. The “interference with binding of S-RBD to hACE2” value on S-RBD binding to hACE2 [2] is reported as “interfered with the binding of the S-RBD to hACE2 in a dose-dependent manner”.

As to Aescin, the Kd at hACE2 (setting [4]) is 105 µM.

As to Sodium aescinate, the Kd on SARS-CoV-2-RBD (S-RBD) (setting [3]) was determined as 16.8 µM.

For the compound Teichomycin, the Kd at hACE2 (setting [4]) is 250 µM.
